{"source": "patent US20250313563A1", "about": "“GLYCOGEN SYNTHASE KINASE 3 INHIBITORS AND USES THEREOF” (The Broad Institute, Inc., priority 2022, published 2025)", "key": {"[1]": {"molecular_target": "GSK3α (Homo sapiens (Human), UniProt P49840)", "sequence (P49840 whole entry)": "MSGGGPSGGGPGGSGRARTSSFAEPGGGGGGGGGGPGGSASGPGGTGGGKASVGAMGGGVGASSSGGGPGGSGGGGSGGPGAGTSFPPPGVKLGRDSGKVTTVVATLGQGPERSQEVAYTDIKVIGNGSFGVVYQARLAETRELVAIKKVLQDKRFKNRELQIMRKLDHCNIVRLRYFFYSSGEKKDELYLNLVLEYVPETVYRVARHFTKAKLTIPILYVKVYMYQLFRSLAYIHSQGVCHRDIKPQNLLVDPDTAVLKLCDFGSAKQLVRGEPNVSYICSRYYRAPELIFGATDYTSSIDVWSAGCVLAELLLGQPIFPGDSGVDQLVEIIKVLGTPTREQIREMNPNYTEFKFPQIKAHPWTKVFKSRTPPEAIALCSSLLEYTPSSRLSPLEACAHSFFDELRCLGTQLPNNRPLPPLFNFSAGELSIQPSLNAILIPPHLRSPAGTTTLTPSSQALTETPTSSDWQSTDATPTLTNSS", "test": "AT8 (pS202/pThr205) tau phosphorylation FRET assay, GSK3α-transfected cells", "type": "cell-based", "conditions": "GSK3α and GSK3β transfected cells"}, "[2]": {"molecular_target": "NanoLuc-GSK3β (Homo sapiens (Human), UniProt P49841)", "sequence (P49841 whole entry)": "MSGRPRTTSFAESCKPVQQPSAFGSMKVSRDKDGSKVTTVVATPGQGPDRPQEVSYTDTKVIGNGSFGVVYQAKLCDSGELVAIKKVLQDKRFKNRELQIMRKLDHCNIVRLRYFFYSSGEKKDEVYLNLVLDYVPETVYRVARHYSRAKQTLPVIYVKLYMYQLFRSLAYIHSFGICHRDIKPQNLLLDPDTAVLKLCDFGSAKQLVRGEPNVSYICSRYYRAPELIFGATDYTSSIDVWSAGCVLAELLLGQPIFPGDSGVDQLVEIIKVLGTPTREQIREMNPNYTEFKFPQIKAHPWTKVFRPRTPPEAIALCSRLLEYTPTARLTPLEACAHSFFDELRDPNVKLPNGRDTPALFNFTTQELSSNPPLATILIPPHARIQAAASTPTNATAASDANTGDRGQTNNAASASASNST", "test": "NanoBRET residence time, GSK3β", "type": "cell-based", "conditions": "inhibitor at 10× IC50, BRET every 5 min for 3 hours"}, "[3]": {"system": "β-catenin nuclear translocation in SH-SY5Y cells", "test": "β-catenin translocation assay", "type": "cell-based", "conditions": "HEK-huTau GSK3α vs SH-SY5Y β-catenin", "method": "SH-SY5Y cells were seeded into a 96-well CellCarrier Ultra (Perkin Elmer) plate at a density of 1×10^5 cells/ml in complete DMEM. Sixteen hours following plating, media was changed to DMEM with 2% serum, and compound was added with a D300e Digital Dispenser (Tecan) for an incubation time of six hours. After compound incubation, media was removed, and cells were fixed with 4% PFA for 10 minutes at room temperature. Each well was washed three times with PBS-T and then blocked with buffer (1×PBS with 5% Normal Goat Serum and 0.3% Triton X-100) for 30 minutes at room temperature. β-Catenin primary antibody (Cell Signaling #8480) was added at 1:500 dilution in blocking buffer and the cells were allowed to incubate in primary overnight at 4° C. The following day, primary antibody was removed, each well was washed three times with PBS-T, and secondary antibody (1:2000 anti-rabbit AlexaFluor Plus 488 and 1:10,000 Hoechst 33342) was added and allowed to incubate for 60 minutes at room temperature protected from light. After one-hour, secondary antibody was removed and wells were washed four times with PBS-T before imaging on the Opera Phenix. Sixteen fields per well were imaged with a 20× water lens.\nImages were quantified in the Columbus Image Data Storage and Analysis software. Cells were identified using the Hoechst nuclear stain to identify individual nuclei. Intensity of the nuclear stain was also used to determine cell viability (Viable cells <30% CV of Hoechst Intensity)"}, "[4]": {"molecular_target": "NanoLuc-GSK3α (Homo sapiens (Human), UniProt P49840)", "sequence (P49840 whole entry)": "as the sequence (P49840 whole entry) above", "test": "NanoBRET residence time, GSK3α", "type": "cell-based", "conditions": "inhibitor at 10× IC50, BRET every 5 min for 3 hours"}, "[5]": {"molecular_target": "GSK3b (GST-full length GSK3b) (Homo sapiens (Human), UniProt P49841)", "sequence (P49841 whole entry)": "as the sequence (P49841 whole entry) above", "test": "GSK3b TR-FRET kinase assay", "type": "biochemical", "conditions": "geometric mean, GMean", "how_it_was_run": "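Readout: anti-pSer641 Tb antibody/streptavidin-d2 signal after 60 min, expressed as 665/615 ratio and fitted versus log concentration for IC50. Enzyme: 1 nM GST-GSK3 (α or β), compound-preincubated 30 min. Conditions: pH 7.5 Tris buffer with MgCl2, DTT, BSA; ATP at 4 or 2 μM, or 1 mM; 100 min.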"}, "[6]": {"system": "251 unique detected kinases in rat brain", "test": "In vivo kinome selectivity (chemoproteomics, kinobeads)", "conditions": "60 mg/kg", "method": "Chemoproteomics competition was used to evaluate inhibitor selectivity and target engagement in vivo. Frozen cortexes were prepared for homogenization with 1.2 mL of Lysis Buffer (50 mM Tris-HCl, 0.8% NP-40 ((octylphenoxy poly(ethyleneoxy) ethanol)), 5% glycerol, 150 mM NaCl, 1.5 mM MgCl2, 25 mM NaF, 1 mM sodium vanadate, 1 mM DTT, pH 7.5 and supplemented with protease inhibitors). Tissues were homogenized in FastPrep-24 5G instrument at maximum oscillations for 20 seconds. The resulting brain homogenate was clarified by centrifugation for 1 h at 145 000 g, 4° C. The protein concentration of the supernatant was determined by BCA assay and each sample was diluted to final concentration of 5 mg/mL with lysis buffer. […] The dry peptide mixture was reconstituted in 15 μL of 0.1% trifluoro acetic acid and analyzed on ID nanoLC-MS/MS platform using a standardized 140 min method. Peptides were separated on an Easy-Spray column (75 μm×50 cm, PepMAP C18, 1.9 μm) at 250 nL/min, analyzed on a QExactive HF mass spectrometer at data dependent acquisition (DDA) mode with MS1 at 60,000 and MS2 at 15,000 resolution, respectively. […]\nTo investigate whether the effects of 837646 on tau phosphorylation were solely the result of GSK3 inhibition, additional kinases detected by mass spectrometry for compound engagement in the same brain lysates were profiled. […]"}}, "note": "Like-named read-outs stand apart in the source and are kept apart here."}
{"smiles": "CCC1(c2cccc(C(F)(F)F)c2)C2=C(Nc3n[nH]cc31)C(F)C(C)(C)CC2=O", "note": "(single isomer, unassigned) [Compound 837646, 4-ethyl-8-fluoro-7,7-dimethyl-4-(3-(trifluoromethyl)phenyl)-2,4,6,7,8,9-hexahydro-5H-pyrazolo[3,4-b]quinolin-5-one]", "values": [{"measurement": "relative cellular potency and paralog selectivity at pS202/pThr205 (AT8) compared with pThr231 assay", "setting": "[1]", "value": "similar"}, {"measurement": "residence time at GSK3β", "setting": "[2]", "value": "no difference in the residence time"}, {"measurement": "window between potency on tau phosphorylation by GSK3α and concentrations affecting β-catenin stabilization", "setting": "[3]", "value": "> 20", "unit": "fold"}, {"measurement": "residence time at GSK3α", "setting": "[4]", "value": "no difference in the residence time"}, {"measurement": "IC50", "setting": "[5]; 1 nM GSK3b, 2 μM ATP, 30 minute preincubation, read-out: GSK3-B TR-FRET BIOCHEMICAL (TR-FRET), IC50", "value": "≤ 100", "unit": "nM"}, {"measurement": "IC50", "setting": "[5]; GSK3-B (TR-FRET 1 mM ATP), IC50, 1 mM ATP", "value": "1000 to 5000", "unit": "nM"}, {"measurement": "number of off-target kinases with target engagement greater than 70%", "setting": "[6]; Cmax, of 251 unique kinases, apart from GSK3", "value": 6}, {"measurement": "number of kinases with target engagement greater than 70% (including GSK3α)", "setting": "[6]; out of 251 unique detected kinases", "value": 7}]}
